± gives the uncertainty stated by the source.
Experiment: xn = mol fraction of the nth substance listed

CCCC[P+](CCCC)(CCCC)CCCC.[Br-] + O
Settings	viscosity [mPa·s]
308.15 K, 101 kPa, x1 = 0.08254	6.085 ± 0.2

CC[N+](CC)(CC)CC.[Br-] + O
298.15 K, 101 kPa
Settings	viscosity [mPa·s]
x1 = 0.0009	0.8894
x1 = 0.0089	1.059
x1 = 0.0177	1.314
x1 = 0.0348	2.397

CNC(C)=O + O
viscosity [mPa·s]
Settings	303.18 K	308.15 K	313.15 K	318.15 K
101 kPa, x2 = 0.0402	3.71 ± 0.03	–	–	–
101 kPa, x2 = 0.1032	3.81 ± 0.03	–	–	–
101 kPa, x2 = 0.2124	4.02 ± 0.03	–	–	–
101 kPa, x2 = 0.3814	4.33 ± 0.03	–	–	–
101 kPa, x2 = 0.455	4.42 ± 0.03	–	–	–
101 kPa, x2 = 0.5528	4.37 ± 0.04	–	–	–
101 kPa, x2 = 0.7092	3.7 ± 0.03	–	–	–
101 kPa, x2 = 0.8121	2.89 ± 0.03	–	–	–
101.33 kPa, x1 = 0.0301	–	0.997 ± 0.006	0.893 ± 0.006	0.812 ± 0.005
101.33 kPa, x1 = 0.06	–	1.293 ± 0.008	1.137 ± 0.007	1.026 ± 0.006
101.33 kPa, x1 = 0.1002	–	1.693 ± 0.01	1.465 ± 0.009	1.301 ± 0.008
101.33 kPa, x1 = 0.15	–	2.24 ± 0.013	1.902 ± 0.011	1.651 ± 0.01
101.33 kPa, x1 = 0.1999	–	2.766 ± 0.016	2.326 ± 0.014	2.001 ± 0.012
101.33 kPa, x1 = 0.245	–	3.108 ± 0.018	2.626 ± 0.016	2.257 ± 0.013
101.33 kPa, x1 = 0.3006	–	3.402 ± 0.02	2.882 ± 0.017	2.483 ± 0.015
101.33 kPa, x1 = 0.3502	–	3.597 ± 0.021	3.063 ± 0.018	2.646 ± 0.016
101.33 kPa, x1 = 0.4012	–	3.748 ± 0.022	3.198 ± 0.019	2.769 ± 0.017
101.33 kPa, x1 = 0.4501	–	3.852 ± 0.023	3.3 ± 0.02	2.859 ± 0.018
101.33 kPa, x1 = 0.5	–	3.921 ± 0.024	3.37 ± 0.021	2.914 ± 0.018
101.33 kPa, x1 = 0.5502	–	3.942 ± 0.025	3.398 ± 0.021	2.938 ± 0.019
101.33 kPa, x1 = 0.6018	–	3.906 ± 0.025	3.382 ± 0.022	2.928 ± 0.019
101.33 kPa, x1 = 0.655	–	3.825 ± 0.025	3.327 ± 0.022	2.894 ± 0.019
101.33 kPa, x1 = 0.7019	–	3.765 ± 0.025	3.281 ± 0.022	2.869 ± 0.019
101.33 kPa, x1 = 0.7551	–	3.688 ± 0.025	3.226 ± 0.022	2.832 ± 0.019
101.33 kPa, x1 = 0.807	–	3.606 ± 0.025	3.167 ± 0.022	2.797 ± 0.02
101.33 kPa, x1 = 0.845	–	3.554 ± 0.025	3.13 ± 0.022	2.768 ± 0.02
101.33 kPa, x1 = 0.9015	–	3.495 ± 0.025	3.077 ± 0.022	2.733 ± 0.02
101.33 kPa, x1 = 0.95	–	3.44 ± 0.025	3.044 ± 0.022	2.703 ± 0.02

NCC(=O)NCC(=O)NCC(=O)O + O
viscosity [mPa·s]
Settings	298.15 K	303.15 K	308.15 K	313.15 K	318.15 K
100 kPa, x1 = 0.0008998	0.9044 ± 0.008	0.8108 ± 0.0073	0.7322 ± 0.0067	0.6656 ± 0.0062	0.6079 ± 0.0057
100 kPa, x1 = 0.001798	0.9128 ± 0.0081	0.8191 ± 0.0073	0.7406 ± 0.0067	0.6738 ± 0.0062	0.6157 ± 0.0058
100 kPa, x1 = 0.002695	0.9213 ± 0.0081	0.8272 ± 0.0074	0.7481 ± 0.0068	0.6812 ± 0.0063	0.6229 ± 0.0058
100 kPa, x1 = 0.00359	0.9287 ± 0.0082	0.8347 ± 0.0075	0.7552 ± 0.0069	0.6885 ± 0.0063	0.6298 ± 0.0059
100 kPa, x1 = 0.004483	0.9364 ± 0.0083	0.8418 ± 0.0076	0.7623 ± 0.0069	0.6953 ± 0.0064	0.6366 ± 0.006
100 kPa, x1 = 0.005375	0.9426 ± 0.0084	0.8482 ± 0.0076	0.7691 ± 0.007	0.7018 ± 0.0065	0.6429 ± 0.006
100 kPa, x1 = 0.006266	0.95 ± 0.0085	0.8548 ± 0.0077	0.7757 ± 0.0071	0.7082 ± 0.0066	0.6492 ± 0.0061
100 kPa, x1 = 0.007154	0.9566 ± 0.0085	0.8615 ± 0.0078	0.7818 ± 0.0072	0.7147 ± 0.0067	0.6552 ± 0.0062
101 kPa, x1 = 0.000199	0.8947 ± 0.019	–	0.7233 ± 0.018	–	0.5994 ± 0.016
101 kPa, x1 = 0.000396	0.8988 ± 0.019	–	0.7269 ± 0.018	–	0.6027 ± 0.016
101 kPa, x1 = 0.0006084	0.9032 ± 0.02	–	0.7307 ± 0.018	–	0.6058 ± 0.016
101 kPa, x1 = 0.0007854	0.9075 ± 0.02	–	0.7343 ± 0.018	–	0.6087 ± 0.016
101 kPa, x1 = 0.001106	0.9149 ± 0.02	–	0.7403 ± 0.018	–	0.6138 ± 0.016
101 kPa, x1 = 0.001839	0.9325 ± 0.02	–	0.7547 ± 0.018	–	0.6255 ± 0.017
101 kPa, x1 = 0.002563	0.9511 ± 0.02	–	0.7694 ± 0.018	–	0.637 ± 0.017
101 kPa, x1 = 0.003356	0.9729 ± 0.02	–	0.7857 ± 0.018	–	0.6495 ± 0.017
101 kPa, x1 = 0.0046	1.01 ± 0.021	–	0.8123 ± 0.019	–	0.6694 ± 0.017

O=S(=O)([O-])c1ccc(Cl)cc1.[Na+] + O
viscosity [mPa·s], 101 kPa
Settings	x1 = 9e-05	x1 = 0.00018	x1 = 0.0009	x1 = 0.0018	x1 = 0.00448	x1 = 0.00893	x1 = 0.0133	x1 = 0.0177
298.15 K	0.899 ± 0.009	0.9 ± 0.009	0.916 ± 0.009	0.939 ± 0.01	1 ± 0.01	1.103 ± 0.011	1.219 ± 0.013	–
318.15 K	0.598 ± 0.006	0.599 ± 0.006	0.608 ± 0.006	0.623 ± 0.006	0.659 ± 0.006	0.723 ± 0.007	0.793 ± 0.008	0.869 ± 0.008

C=C(C)C(=O)OCCO + O=C1CCCCC1
viscosity [mPa·s], 101 kPa
Settings	x2 = 0.1	x2 = 0.2	x2 = 0.3	x2 = 0.4	x2 = 0.5	x2 = 0.6	x2 = 0.6999	x2 = 0.8	x2 = 0.9
298.15 K	5.035 ± 0.23	4.22 ± 0.19	3.579 ± 0.17	3.213 ± 0.15	2.928 ± 0.14	2.661 ± 0.12	2.319 ± 0.11	2.089 ± 0.098	2.06 ± 0.096
308.15 K	3.747 ± 0.17	3.184 ± 0.15	2.768 ± 0.13	2.512 ± 0.12	2.282 ± 0.11	2.045 ± 0.096	1.856 ± 0.088	1.707 ± 0.081	1.695 ± 0.08
318.15 K	2.881 ± 0.14	2.474 ± 0.12	2.2 ± 0.1	2.012 ± 0.095	1.853 ± 0.088	1.678 ± 0.08	1.54 ± 0.074	1.439 ± 0.069	1.421 ± 0.068

CCOCCO + O=C1CCCCC1
298.15 K, 101 kPa
Settings	viscosity [mPa·s]
x2 = 0.0926	1.684 ± 0.041
x2 = 0.1867	1.587 ± 0.036
x2 = 0.2824	1.529 ± 0.032
x2 = 0.3797	1.494 ± 0.028
x2 = 0.4787	1.469 ± 0.025
x2 = 0.5793	1.472 ± 0.023
x2 = 0.6818	1.506 ± 0.021
x2 = 0.786	1.564 ± 0.019
x2 = 0.892	1.691 ± 0.018

CCOCCO + O=C1CCCO1
303.15 K, 101.33 kPa
Settings	viscosity [mPa·s]
x1 = 0.0345	1.722 ± 0.028
x1 = 0.0509	1.708 ± 0.028
x1 = 0.0767	1.687 ± 0.027
x1 = 0.1125	1.658 ± 0.027
x1 = 0.2033	1.603 ± 0.026
x1 = 0.3137	1.561 ± 0.025
x1 = 0.4404	1.544 ± 0.025
x1 = 0.5421	1.538 ± 0.025
x1 = 0.6504	1.535 ± 0.024
x1 = 0.8807	1.541 ± 0.024
x1 = 0.9372	1.538 ± 0.024
x1 = 0.9693	1.553 ± 0.025

CNC(C)=O + O=C1CCCO1
viscosity [mPa·s], 101 kPa
Settings	x1 = 0.0549	x1 = 0.1816	x1 = 0.2715	x1 = 0.3602	x1 = 0.4477	x1 = 0.5352	x1 = 0.6411	x1 = 0.7239	x1 = 0.9033
303.15 K	1.516 ± 0.11	1.586 ± 0.11	1.642 ± 0.12	1.719 ± 0.12	1.82 ± 0.13	1.99 ± 0.14	2.215 ± 0.15	2.45 ± 0.17	3.147 ± 0.21
308.15 K	1.408 ± 0.1	1.452 ± 0.1	1.51 ± 0.11	1.572 ± 0.11	1.662 ± 0.12	1.78 ± 0.12	1.979 ± 0.14	2.178 ± 0.15	2.799 ± 0.19
313.15 K	1.338 ± 0.096	1.343 ± 0.096	1.393 ± 0.099	1.447 ± 0.1	1.521 ± 0.11	1.626 ± 0.11	1.805 ± 0.13	1.967 ± 0.14	2.515 ± 0.17
318.15 K	1.213 ± 0.088	1.247 ± 0.09	1.281 ± 0.092	1.334 ± 0.096	1.403 ± 0.1	1.514 ± 0.11	1.665 ± 0.12	1.8 ± 0.13	2.226 ± 0.15
